# US20090017003A1, “THIOSULFONATE ANTI-INFLAMMATORY AGENTS” (SULFIDRIS S.R.L., priority 2006, published 2009)
# Columns and labels:
# [1] = format: in vivo; conditions: male rats, once daily by gavage for three days, diclofenac 10 mg/kg, compound of example 5 14 mg/kg
# Procedure: Thirty male rats (150-200 g) were divided into three groups of 10 animals/group and treated with vehicle, diclofenac (10 mg/kg) and the compound of example 5 (14 mg/kg) for three days once daily by gavage. The vehicle consisted in 1 mL of 0.5% carboxymethylcellulose (CMC). At the fifth day, survival animals were sacrificed, by an overdose of ether, and autopsied to detect any pathological changes, particularly in the gastrointestinal tract. Prostaglandin E2 was evaluated in the liver homogenate by standard enzyme immunoassay procedure as described by Warner T D et al. (J.P.E.T. 2004, 310, 642-7).
# PC-3 [2] = test: Growth and adhesion to endothelial cells of PC-3 prostate tumour cells in vitro; format: cell-based
# Procedure: (§1) The compound described in example 6 has been tested in vitro on 2 prostate tumour cells (DU-145 and PC-3). […] The activity reported in the literature for the parent compound (valproic acid) on the same tumour cells is achieved at much higher concentrations (1 mM). (Engl. T et al. Life Sciences, 2005).
# DU-145 [3] = test: Growth and adhesion to endothelial cells of DU-145 prostate tumour cells in vitro; format: cell-based
# Procedure: as §1
# gp91^phox = test: gp91phox expression by cultured pulmonary endothelial cells; format: cell-based, porcine; conditions: 16 hr incubation of pig pulmonary artery cells with TNFα
# From the text: (§2) Effects of the compound prepared in example 4 on superoxide formation, gp91^phox expression by porcine cultured pulmonary endothelial cells and intact cavernosal tissue were studied according to Muzzaffar S. et al. (Br. J. Pharmacol. 2005 September; 146(1):109-17).
# superoxide formation = test: Superoxide formation by cultured pulmonary endothelial cells; format: cell-based, porcine
# From the text: as §2
# PC-3 [4] = conditions: PC-3 prostate tumour cells; Engl T. et al., Life Sciences 2005; cited from earlier work
# DU-145 [5] = conditions: DU-145 prostate tumour cells; Engl T. et al., Life Sciences 2005; cited from earlier work
smiles,measurement,setting,value
"CS(=O)(=O)SCCOC(=O)Cc1cccc(Nc2c(Cl)cccc2Cl)c1 [Example 5, [3-(2,6-dichloro-phenylamino)-phenyl]-acetic acid 2-methanesulfonylsulfanyl-ethyl ester]",% gastrointestinal ulcer,[1]; autopsy at fifth day,10%
"CCCC(CCC)C(=O)OCCSS(C)(=O)=O [Example 6, 2-propyl-pentanoic acid 2-methanesulfonylsulfanyl-ethyl ester]",concentration range inhibiting adhesion to endothelial cells,PC-3 [2],5 to 30 µM
same,concentration range inhibiting growth,PC-3 [2],5 to 30 µM
same,concentration range inhibiting adhesion to endothelial cells,DU-145 [3],5 to 30 µM
same,concentration range inhibiting growth,DU-145 [3],5 to 30 µM
"CCCc1nn(C)c2c(=O)[nH]c(-c3cc(S(=O)(=O)N4CCN(CC(=O)OCCSS(C)(=O)=O)CC4)ccc3OCC)nc12 [Example 4, {4-[4-ethoxy-3-(1-methyl-7-oxo-3-propyl-6,7-dihydro-1H-pyrazolo[4,3-d]pyrimidin-5-yl)-benzenesulfonyl]-piperazin-1-yl}-acetic acid 2-methanesulfonylsulfanyl-ethyl ester]",inhibition of gp91phox expression,gp91^phox,inhibited
same,inhibition of superoxide formation,superoxide formation; 16 hr incubation of pig pulmonary artery cells with TNFα,potent inhibitor
same,inhibition of superoxide formation,superoxide formation; 16 hr incubation of pig pulmonary artery cells with thromboxane A2 analogue U46619,potent inhibitor
same,concentration reducing superoxide formation compared with sildenafil citrate,superoxide formation; response to inflammatory mediators,lower concentrations than sildenafil citrate
CCCC(CCC)C(=O)O [valproic acid],concentration at which activity is achieved (literature),PC-3 [4],1 mM
same,concentration at which activity is achieved (literature),DU-145 [5],1 mM
"O=C(O)Cc1ccccc1Nc1c(Cl)cccc1Cl [Diclofenac, diclofenac, reference compound]",% deaths,[1]; 10 animals/group,40%
